In brackets after ≈: the same amount, converted by molar mass. Like-named read-outs stand apart in the source and are kept apart here.
System: MRSA and MSSA
Assay: Antibacterial activity of gallic acid, various gallates and multivalent phenol derivatives alone (agar plate dilution method, MIC)
Type: cell-based, Staphylococcus aureus
Settings: Staphylococcus aureus
Method: According to the agar plate dilution method defined by Japan Society of Chemotherapy, MIC (Minimum inhibitory concentration) was determined. CAMHA was prepared by adding 50 mg/l of Ca-ion, 25 mg/l of Mg-ion, and 2% of NaCl to Mueller-Hinton II Agar (MHA), and it was used as a medium for use in the measurement of sensitivity. The bacterial liquid was incubated at 37° C. overnight and diluted to 10^6 CFU/ml with saline.
MIC for gallic acid, various gallates and multivalent phenol derivatives alone with MRSA and MSSA were determined as described in experiment 2.

[1] = ATCC 6538 / MRSA / MSSA, ATCC6538, read-out: MIC alone
[2] = MSSA #1003, read-out: MIC alone
[3] = MSSA #1010, read-out: MIC alone
[4] = MSSA #1020, read-out: MIC alone
[5] = MSSA #1023, read-out: MIC alone
[6] = MSSA #1029, read-out: MIC alone
[7] = MSSA #1032, read-out: MIC alone
[8] = compound alone, over all strains of Table 3-1, read-out: MIC50

With CCCCCOC(=O)c1ccc(O)cc1 [n-Amyl 4-hydroxybenzoate] the MIC50 was 62.5 µg/mL (≈ 300 µM), the MIC (ATCC 6538 / MRSA / MSSA) was 62.5 µg/mL (≈ 300 µM) and the MIC (COL, compound alone, read-out: MIC) was 62.5 µg/mL (≈ 300 µM). The MIC (MRSA #1, compound alone, read-out: MIC) was 62.5 µg/mL (≈ 300 µM), the MIC (MRSA #2, compound alone, read-out: MIC) was 62.5 µg/mL (≈ 300 µM) and the MIC (MRSA #3, compound alone, read-out: MIC) was 62.5 µg/mL (≈ 300 µM). The MIC (MRSA #4, compound alone, read-out: MIC) was 62.5 µg/mL (≈ 300 µM), the MIC (MRSA #5, compound alone, read-out: MIC) was 62.5 µg/mL (≈ 300 µM) and the MIC (MRSA #6, compound alone, read-out: MIC) was 31.3 µg/mL (≈ 150 µM). It also gave an MIC (MRSA #7, compound alone, read-out: MIC) of 62.5 µg/mL (≈ 300 µM), an MIC (MRSA #8, compound alone, read-out: MIC) of 31.3 µg/mL (≈ 150 µM) and an MIC (MRSA #9, compound alone, read-out: MIC) of 31.3 µg/mL (≈ 150 µM). It also gave an MIC (MRSA #10, compound alone, read-out: MIC) of 62.5 µg/mL (≈ 300 µM), an MIC (MRSA #12, compound alone, read-out: MIC) of 62.5 µg/mL (≈ 300 µM) and an MIC (MRSA #16, compound alone, read-out: MIC) of 62.5 µg/mL (≈ 300 µM). It also gave an MIC (MRSA #17, compound alone, read-out: MIC) of 62.5 µg/mL (≈ 300 µM), an MIC (MRSA #18, compound alone, read-out: MIC) of 62.5 µg/mL (≈ 300 µM) and an MIC (MRSA #20, compound alone, read-out: MIC) of 62.5 µg/mL (≈ 300 µM). For the same compound, the MIC (MRSA #21, compound alone, read-out: MIC) was 62.5 µg/mL (≈ 300 µM), the MIC (MRSA #22, compound alone, read-out: MIC) was 62.5 µg/mL (≈ 300 µM) and the MIC (MRSA #24, compound alone, read-out: MIC) was 62.5 µg/mL (≈ 300 µM). The MIC (MSSA #1003, compound alone, read-out: MIC) was 62.5 µg/mL (≈ 300 µM), the MIC (MSSA #1010, compound alone, read-out: MIC) was 62.5 µg/mL (≈ 300 µM) and the MIC (MSSA #1020, compound alone, read-out: MIC) was 62.5 µg/mL (≈ 300 µM). It also gave an MIC (MSSA #1023, compound alone, read-out: MIC) of 31.3 µg/mL (≈ 150 µM), an MIC (MSSA #1029, compound alone, read-out: MIC) of 62.5 µg/mL (≈ 300 µM) and an MIC (MSSA #1032, compound alone, read-out: MIC) of 62.5 µg/mL (≈ 300 µM).

Work on COC(=O)c1cc(O)c(O)c(O)c1 [Methyl gallate, methyl gallate] yielded an MIC [1] of 250 µg/mL (≈ 1360 µM), an MIC (COL, read-out: MIC alone) of 250 µg/mL (≈ 1360 µM) and an MIC (MRSA #1, read-out: MIC alone) of 250 µg/mL (≈ 1360 µM). It also gave an MIC (MRSA #2, read-out: MIC alone) of 125 µg/mL (≈ 679 µM), an MIC (MRSA #3, read-out: MIC alone) of 250 µg/mL (≈ 1360 µM) and an MIC (MRSA #4, read-out: MIC alone) of 125 µg/mL (≈ 679 µM). It also gave an MIC (MRSA #5, read-out: MIC alone) of 250 µg/mL (≈ 1360 µM), an MIC (MRSA #6, read-out: MIC alone) of 125 µg/mL (≈ 679 µM) and an MIC (MRSA #7, read-out: MIC alone) of 250 µg/mL (≈ 1360 µM). The MIC (MRSA #8, read-out: MIC alone) was 250 µg/mL (≈ 1360 µM), the MIC (MRSA #9, read-out: MIC alone) was 62.5 µg/mL (≈ 339 µM) and the MIC (MRSA #10, read-out: MIC alone) was 62.5 µg/mL (≈ 339 µM). It also gave an MIC (MRSA #12, read-out: MIC alone) of 250 µg/mL (≈ 1360 µM), an MIC (MRSA #16, read-out: MIC alone) of 125 µg/mL (≈ 679 µM) and an MIC (MRSA #17, read-out: MIC alone) of 125 µg/mL (≈ 679 µM). For the same compound, the MIC (MRSA #18, read-out: MIC alone) was 125 µg/mL (≈ 679 µM), the MIC (MRSA #20, read-out: MIC alone) was 250 µg/mL (≈ 1360 µM) and the MIC (MRSA #21, read-out: MIC alone) was 250 µg/mL (≈ 1360 µM). The MIC (MRSA #22, read-out: MIC alone) was 250 µg/mL (≈ 1360 µM), the MIC (MRSA #24, read-out: MIC alone) was 250 µg/mL (≈ 1360 µM) and the MIC [2] was 250 µg/mL (≈ 1360 µM). The MIC [3] was 250 µg/mL (≈ 1360 µM), the MIC [4] was 250 µg/mL (≈ 1360 µM) and the MIC [5] was 125 µg/mL (≈ 679 µM). For the same compound, the MIC [6] was 62.5 µg/mL (≈ 339 µM), the MIC [7] was 250 µg/mL (≈ 1360 µM) and the MIC50 [8] was 250 µg/mL (≈ 1360 µM).

Compound O=C(O)c1cc(O)c(O)c(O)c1 [Gallic acid, gallic acid, reference compound] has an MIC [1] of 62.5 µg/mL (≈ 367 µM), an MIC (COL, read-out: MIC alone) of 62.5 µg/mL (≈ 367 µM) and an MIC (MRSA #1, read-out: MIC alone) of 31.3 µg/mL (≈ 184 µM). It also gave an MIC (MRSA #2, read-out: MIC alone) of 62.5 µg/mL (≈ 367 µM), an MIC (MRSA #3, read-out: MIC alone) of 31.3 µg/mL (≈ 184 µM) and an MIC (MRSA #4, read-out: MIC alone) of 62.5 µg/mL (≈ 367 µM). It also gave an MIC (MRSA #5, read-out: MIC alone) of 31.3 µg/mL (≈ 184 µM), an MIC (MRSA #6, read-out: MIC alone) of 31.3 µg/mL (≈ 184 µM) and an MIC (MRSA #7, read-out: MIC alone) of 62.5 µg/mL (≈ 367 µM). For the same compound, the MIC (MRSA #8, read-out: MIC alone) was 31.3 µg/mL (≈ 184 µM), the MIC (MRSA #9, read-out: MIC alone) was 31.3 µg/mL (≈ 184 µM) and the MIC (MRSA #10, read-out: MIC alone) was 31.3 µg/mL (≈ 184 µM). For the same compound, the MIC (MRSA #12, read-out: MIC alone) was 62.5 µg/mL (≈ 367 µM), the MIC (MRSA #16, read-out: MIC alone) was 31.3 µg/mL (≈ 184 µM) and the MIC (MRSA #17, read-out: MIC alone) was 62.5 µg/mL (≈ 367 µM). For the same compound, the MIC (MRSA #18, read-out: MIC alone) was 62.5 µg/mL (≈ 367 µM), the MIC (MRSA #20, read-out: MIC alone) was 62.5 µg/mL (≈ 367 µM) and the MIC (MRSA #21, read-out: MIC alone) was 62.5 µg/mL (≈ 367 µM). For the same compound, the MIC (MRSA #22, read-out: MIC alone) was 62.5 µg/mL (≈ 367 µM), the MIC (MRSA #24, read-out: MIC alone) was 62.5 µg/mL (≈ 367 µM) and the MIC [2] was 62.5 µg/mL (≈ 367 µM). The MIC [3] was 62.5 µg/mL (≈ 367 µM), the MIC [4] was 62.5 µg/mL (≈ 367 µM) and the MIC [5] was 31.3 µg/mL (≈ 184 µM). The MIC [6] was 31.3 µg/mL (≈ 184 µM), the MIC [7] was 31.3 µg/mL (≈ 184 µM) and the MIC50 [8] was 62.5 µg/mL (≈ 367 µM).

Reference: patent publication US20060235076A1, “Medicinal composition for treating infection with drug-resistant staphylococcus aureus” (priority 2003, published 2006)
